Laboratory results reported in patent publication US20250333371A1, “COMPOUNDS” (PSYLO PTY LTD, priority 2022, published 2025).
“And” between values parts separate entries of the source, which are not always exact repeats. Equal entries are not always repeated. Where two headings read alike, the source gives them in different places.

Tests used:
[1] = In vivo pharmacokinetics: plasma and brain exposure after IP administration; design: species or system male C57BL/6 mice; settings: for B:P Ratio Individual / Plasma Concentration (μM) Individual / concentration at 0.5 h / concentration at 0.083 h / concentration at 4 h / Kp at 0.083 h / Kp at 0.5 h / Kp at 4 h / Kp: 10 mg/kg; for Kp at 0.083 h / Kp at 0.5 h / Kp at 4 h / Kp: brain/plasma; for AUC(0-t): read-out: Plasma AUC0-4 h; for AUC(0-inf): read-out: Plasma AUC0-inf; for half-life: read-out: Apparent t1/2 (converted)
Experimental: The study was conducted using established procedures in accordance with the Australian Code of Practice for the Care and Use of Animals for Scientific Purposes, and the study protocols were reviewed and approved by the Monash Institute of Pharmaceutical Sciences Animal Ethics Committee.
The systemic exposure of selected examples was studied in non-fasted male C57BL/6 mice weighing between 22.3-26.2 g. Mice had access to food and water ad libitum throughout the pre- and post-dose sampling period.
On the day of dosing, the formulation of each compound was prepared by dissolving solid compound in phosphate buffer saline (50 mM) using vortexing, creating colourless solutions (pH 6.1-6.3) for each compound.
Compounds were dosed to mice by IP injection (10 mL/kg dose volume via a 27G needle; n=9 mice per compound) and blood samples were collected at 5 and 30 min; 1, 2 and 4 h post-dose (n=3 mice per time point for each compound). A maximum of three blood samples were obtained from each mouse, with plasma samples being taken via submandibular bleed (approximately 120 μL). Once collected, blood samples were centrifuged immediately, supernatant plasma was removed, and stored at −80° C. until analysis by LCMS. In addition, at the 5 and 30 min and 4 h post-dose time points, the whole brain was rapidly removed from the carcass soon after the blood collection. The whole brains were blotted to remove excess blood, placed into pre-weighed polypropylene vials, and weighed. The brains were snap frozen in dry ice and subsequently stored frozen (−80° C.) until analysis.
Concentrations of test compound in plasma and tissue samples were determined using an LCMS/MS method validated for linearity, accuracy, precision, matrix factor and recovery (Table 2).
Test compound standard solutions were diluted from a concentrated stock solution (1 mg/mL in DMSO) using 50% acetonitrile in water (v/v) and a calibration curve was prepared in a matched matrix to the test samples.
Plasma: The plasma calibration curve was prepared by spiking aliquots of blank mouse plasma (25 μL) with test compound standard solutions (5 μL) and internal standard solution (5 μL of diazepam, 5 μg/mL in 50% acetonitrile in water). Test plasma samples (25 μL) were thawed, mixed, and then spiked with internal standard solution (5 μL). Plasma protein precipitation was performed by addition of acetonitrile (3-fold volume ratio) and thorough vortex mixing. Samples were centrifuged (RCF=9391×g) for 3 minutes and the supernatant (90 μL) was collected for analysis.
Tissue: Pre-weighed tissue samples (brain) were homogenised using a glass rod in buffer containing an EDTA/potassium fluoride solution (0.1 M/4 mg/mL) as a stabilisation cocktail to minimise the potential for ex vivo degradation (3 mL cocktail/g tissue). The tissue homogenate was briefly centrifuged (RCF=79×g) for 10 seconds to separate the foam layer before transferring an aliquot of the tissue homogenate (200 μL) to a fresh Eppendorf tube for sample extraction. Calibration standards were prepared by spiking blank brain homogenate (200 μL) with the solution standards (10 μL) and the internal standard (10 μL). Study samples were similarly prepared, except that acetonitrile (10 μL) was added instead of solution standards to maintain the same volume. Protein precipitation was carried out by the addition of a 3-fold volume of acetonitrile, followed by vortex mixing and centrifugation (RCF=9391×g) for 3 min to recover the supernatant for analysis.
Replicate analysis: Triplicate analytical replicate (ARs) samples were prepared similarly to the standards for each sample type at three concentrations (50, 500 and 2,000 ng/mL) and repeat injections of these ARs were included throughout the analytical run to assess assay performance. The extraction of the test compound from the standards and ARs were conducted as described above. […]

5-HT2C = target: T1, 5-HT2C (Homo sapiens, UniProt P28335); test: FLIPR Ca2+ flux functional assay, 5-HT2C receptor (stably transfected HEK293); type: cell-based
T1 construct: host or cells: HEK293
T1 sequence (P28335 33-458): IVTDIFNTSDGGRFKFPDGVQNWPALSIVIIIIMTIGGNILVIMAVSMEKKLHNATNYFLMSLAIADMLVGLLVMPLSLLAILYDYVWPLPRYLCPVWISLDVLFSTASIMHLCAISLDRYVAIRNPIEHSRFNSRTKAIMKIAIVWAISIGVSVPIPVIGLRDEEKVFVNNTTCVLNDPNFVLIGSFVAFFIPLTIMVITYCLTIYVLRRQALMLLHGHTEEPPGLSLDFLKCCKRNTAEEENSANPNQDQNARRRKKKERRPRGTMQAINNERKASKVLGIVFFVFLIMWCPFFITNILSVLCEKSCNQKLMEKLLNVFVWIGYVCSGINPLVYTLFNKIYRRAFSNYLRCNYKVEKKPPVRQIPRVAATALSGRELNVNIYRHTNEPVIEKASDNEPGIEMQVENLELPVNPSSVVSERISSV
Experimental: (§1) Activity at 5-HT2A, 5-HT2B and 5-HT2C receptors was determined using a FLIPR Ca^2+ flux assay at WuXi AppTec Co. Ltd. (Hong Kong) Discovery Biology Unit according to their standard protocols. Briefly, stably transfected cells expressing the receptor of interest (HEK293 for 5-HT2A and 5-HT2C; CHO-K1 for 5-HT2B) were grown and plated in a 384 well plate and incubated at 37° C. and 5% CO2 overnight. A 250 mM stock solution of probenecid in FLIPR calcium assay buffer (10 mL) was freshly prepared and combined with a fluorescent dye (Fluo-4 Direct) to give a final assay concentration of 2.5 mM. Reference compounds were 4-fold serially diluted and the screening compounds were 3-fold serially diluted in 100% DMSO for 10 points using Agilent Bravo, and 750 nL was added to a 384 well compound plate using Echo along with 30 μL assay buffer. The fluorescent dye was then added to the assay plate along with assay buffer to a final volume of 40 μL. The cell plate was incubated for 50 min at 37° C. and 5% CO2 and placed into the FLIPR Tetra along with the compound plate. 10 μL of references and compounds were then transferred from the compound plate into the cell plate and the fluorescent signal was read.

5-HT2A = target: T2, 5-HT2A (Homo sapiens, UniProt P28223); test: FLIPR Ca2+ flux functional assay, 5-HT2A receptor (stably transfected HEK293); type: cell-based
T2 construct: host or cells: HEK293
T2 sequence (P28223 whole entry): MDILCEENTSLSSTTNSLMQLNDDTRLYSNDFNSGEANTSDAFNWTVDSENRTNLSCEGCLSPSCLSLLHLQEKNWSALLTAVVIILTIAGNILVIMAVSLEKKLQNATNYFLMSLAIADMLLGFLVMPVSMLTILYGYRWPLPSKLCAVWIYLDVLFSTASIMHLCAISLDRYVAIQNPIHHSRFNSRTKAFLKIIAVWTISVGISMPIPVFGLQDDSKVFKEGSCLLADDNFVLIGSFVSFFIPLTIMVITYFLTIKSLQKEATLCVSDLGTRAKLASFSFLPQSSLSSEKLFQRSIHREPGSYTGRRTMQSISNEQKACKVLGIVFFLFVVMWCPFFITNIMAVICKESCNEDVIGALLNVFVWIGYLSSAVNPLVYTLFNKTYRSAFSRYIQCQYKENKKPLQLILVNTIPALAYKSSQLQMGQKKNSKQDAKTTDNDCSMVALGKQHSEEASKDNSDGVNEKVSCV
Experimental: as §1

[2] = IP 10 mg/kg, 0.083 h, individual mice
[3] = IP 10 mg/kg, 0.083 h, individual mice, read-out: Brain Parenchyma Concentration (μM) Individual
[4] = IP 10 mg/kg, 0.5 h, individual mice
[5] = IP 10 mg/kg, 0.5 h, individual mice, read-out: Brain Parenchyma Concentration (μM) Individual
[6] = IP 10 mg/kg, 4 h, individual mice
[7] = IP 10 mg/kg, 4 h, individual mice, read-out: Brain Parenchyma Concentration (μM) Individual
[8] = male, C57BL/6, mouse, brain, ip, 0.083 h, individual mice, read-out: Brain Parenchyma Concentration (μM) Individual
[9] = male, C57BL/6, mouse, brain, ip, 0.083 h, n = 3, read-out: Brain Parenchyma Concentration (μM) Mean ± SD
[10] = male, C57BL/6, mouse, brain, ip, 0.5 h, n = 3, read-out: Brain Parenchyma Concentration (μM) Mean ± SD
[11] = male, C57BL/6, mouse, brain, ip, 4 h, n = 3, read-out: Brain Parenchyma Concentration (μM) Mean ± SD
[12] = male, C57BL/6, mouse, ip, 0.083 h, individual mice, read-out: B:P Ratio Individual
[13] = male, C57BL/6, mouse, ip, 0.083 h, n = 3, read-out: B:P Ratio Mean ± SD
[14] = male, C57BL/6, mouse, ip, 0.5 h, individual mice, read-out: B:P Ratio Individual
[15] = male, C57BL/6, mouse, ip, 0.5 h, n = 3, read-out: B:P Ratio Mean ± SD
[16] = male, C57BL/6, mouse, ip, 4 h, individual mice, read-out: B:P Ratio Individual
[17] = male, C57BL/6, mouse, ip, 4 h, n = 3, read-out: B:P Ratio Mean ± SD
[18] = male, C57BL/6, mouse, ip, (fu, brain * AUCbrain, 0-4 h)/(fu, plasma * AUCplasma, 0-4 h), read-out: (Unbound) time-averaged B:P
[19] = male, C57BL/6, mouse, ip, AUCbrain, 0-4 h/AUCplasma, 0-4 h, read-out: (Total) time-averaged B:P
[20] = male, C57BL/6, mouse, plasma, ip, 0.083 h, individual mice, read-out: Plasma Concentration (μM) Individual
[21] = male, C57BL/6, mouse, plasma, ip, 0.083 h, n = 3, read-out: Plasma Concentration (μM) Mean ± SD
[22] = male, C57BL/6, mouse, plasma, ip, 0.5 h, individual mice, read-out: Plasma Concentration (μM) Individual
[23] = male, C57BL/6, mouse, plasma, ip, 0.5 h, n = 3, read-out: Plasma Concentration (μM) Mean ± SD
[24] = male, C57BL/6, mouse, plasma, ip, 4 h, n = 3, read-out: Plasma Concentration (μM) Mean ± SD
[25] = male, C57BL/6, mouse, plasma, IP 10 mg/kg
[26] = male, C57BL/6, mouse, IP 10 mg/kg, plasma
[27] = agonist activity, Ca2+ flux, HEK293

| Compound | Brain AUC0-4 h ([1]; IP 10 mg/kg) | B:P Ratio Individual [1, 2] | Plasma Concentration (μM) Individual [1, 2] | concentration at 0.5 h [1, 3] | B:P Ratio Individual [1, 4] | Plasma Concentration (μM) Individual [1, 4] | concentration at 0.5 h [1, 5] | B:P Ratio Individual [1, 6] | Plasma Concentration (μM) Individual [1, 6] | concentration at 0.5 h [1, 7] | concentration at 0.083 h [1, 8] | concentration at 0.083 h [1, 9] | concentration at 0.5 h [1, 10] | concentration at 4 h [1, 11] | Kp at 0.083 h [1, 12] | Kp at 0.083 h [1, 13] | Kp at 0.5 h [1, 14] | Kp at 0.5 h [1, 15] | Kp at 4 h [1, 16] | Kp at 4 h [1, 17] | other results |
| --- | --- | --- | --- | --- | --- | --- | --- | --- | --- | --- | --- | --- | --- | --- | --- | --- | --- | --- | --- | --- | --- |
| COc1ccc2cccc(CCN(C)C(C)C)c2c1 [Example I-7, N-(2-(7-methoxynaphthalen-1-yl)ethyl)-N-methylpropan-2-amine] | 32.3 µM·h | 11 and 8.9 | 0.896 µM and 1.00 µM | 9.90 µM and 8.88 µM | 18 and 26 | 0.947 µM and 1.55 µM | 17.9 µM and 17.5 µM and 40.1 µM | 14 and 11 | 0.0483 µM and 0.0571 µM | 0.696 µM and 0.639 µM | 6.41 µM | 8.4 ± 1.79 µM | 25.2 ± 13 µM | 0.0825 µM | 9.2 | 9.7 ± 1.2 | 17 | 21 ± 4.6 | 16 | 14 ± 2.4 | concentration at 4 h ([1]; male, C57BL/6, mouse, brain, ip, 4 h, individual mice, read-out: Brain Parenchyma Concentration (μM) Individual): 1.14 µM; Kp [1, 18]: 3.2; Kp [1, 19]: 18; concentration at 0.083 h [1, 20]: 0.695 µM; concentration at 0.083 h [1, 21]: 0.864 ± 0.155 µM; concentration at 0.5 h [1, 22]: 1.03 µM; concentration at 0.5 h [1, 23]: 1.18 ± 0.329 µM; concentration at 4 h ([1]; male, C57BL/6, mouse, plasma, ip, 4 h, individual mice, read-out: Plasma Concentration (μM) Individual): 0.0723 µM; concentration at 4 h [1, 24]: 0.0592 ± 0.0121 µM; Cmax [1, 25]: 1180 nM; Tmax [1, 25]: 30 min; AUC(0-t) [1, 25]: 1.82 µM·h; AUC(0-inf) [1, 25]: 1.89 µM·h; half-life [1, 26]: 46.2 min; EC50 (5-HT2C): 603 nM; Emax (5-HT2C; [27]): 56%; EC50 (5-HT2A): 164 nM; Emax (5-HT2A; [27]): 84% |
| COc1ccc2cccc(CCN(C)C3CC3)c2c1 [Example I-15, N-(2-(7-methoxynaphthalen-1-yl)ethyl)-N-methylcyclopropanamine] | 13.8 µM·h | 6.9 and 6.7 | 1.38 µM and 1.48 µM | 9.59 µM and 9.89 µM | 8.2 and 8.1 | 0.932 µM and 0.820 µM | 7.6 µM and 6.64 µM | 9.3 and 7.5 | 0.0701 µM and 0.151 µM and 0.101 µM | 0.553 µM and 1.41 µM and 0.755 µM | 16.9 µM | 12.1 ± 4.14 µM | 6.18 ± 1.7 µM | 0.905 ± 0.446 µM | 7.3 | 7 ± 0.33 | 6 | 7.4 ± 1.2 | 7.9 | 8.2 ± 1 | concentration at 0.5 h ([1]; male, C57BL/6, mouse, brain, ip, 0.5 h, individual mice, read-out: Brain Parenchyma Concentration (μM) Individual): 4.3 µM; Kp [1, 18]: 2; Kp [1, 19]: 8.1; concentration at 0.083 h [1, 20]: 2.3 µM; concentration at 0.083 h [1, 21]: 1.72 ± 0.506 µM; concentration at 0.5 h [1, 22]: 0.718 µM; concentration at 0.5 h [1, 23]: 0.823 ± 0.107 µM; concentration at 4 h [1, 24]: 0.107 ± 0.0406 µM; Cmax [1, 25]: 1720 nM; Tmax [1, 25]: 5 min; AUC(0-t) [1, 25]: 1.71 µM·h; AUC(0-inf) [1, 25]: 1.9 µM·h; half-life [1, 26]: 72 min; Emax (5-HT2C; [27]): 65%; EC50 (5-HT2C; agonist activity, Ca2+ flux, HEK293, read-out: 5-HT2C EC50): 292 nM; Emax (5-HT2A; [27]): 70%; EC50 (5-HT2A; agonist activity, Ca2+ flux, HEK293, read-out: 5-HT2A EC50): 133 nM |
